Test results: US20070259928A1, “Medicinal Composition for Treating Diabetes” (priority 2004, published 2007)

Tests used:
[1] = tested on: Zucker diabetic fatty (ZDF) rats; assay: Test Example 1: glycosylated hemoglobin ratio after 6 weeks of repeated, timed administration of Compound A and metformin; assay type: in vivo, rat; conditions: for glycosylated hemoglobin ratio vs control group: 100-150 mg/kg each once daily
Procedure: Eleven-week old Zucker diabetic fatty (ZDF) rats, that spontaneously developed diabetes mellitus, were grouped into 3 groups (7 rats per group). Feeding was limited to from 17:00 to 9:00, and Compound A and metformin (purchased from Sigma Chemical Co., Ltd.) were repeatedly administered for 6 weeks. Doses of Compound A and metformin were 100-150 mg/kg each once daily, and administered at 9:00 AM (9:00) or 4:00 PM (16:00). In the group administered Compound A at 9:00 AM, metformin was administered at 4:00 PM (AM-Compound A/PM-metformin administered group; Group A), and in the group administered metformin at 9:00 AM, Compound-A was administered at 4:00 PM (AM-metformin/PM-Compound A administered group; Group B). The dose of each compound per day in both groups was fixed at the same. Vehicle alone was administered to the remaining group (control group) twice a day. After repeated administration of the compounds for 6 weeks, blood sample was collected from the tail vein of each rat, and ratios of glycosylated hemoglobin levels in erythrocytes were determined by DCA2000 manufactured by Bayer Medical Ltd. Glycosylated hemoglobin is non-enzymatically formed by binding of glucose to hemoglobin, and the ratio of glycosylated hemoglobin is increased by sustained hyperglycemia. Thus the glycosylated hemoglobin ratio is widely used as an indicator of a long-term therapy (or control of blood glucose levels) in patients with diabetes mellitus. The average and standard error of the glycosylated hemoglobin ratio determined in each group were calculated and are shown in FIG. 1.

Goto-Kakizaki (GK) rats = assay: Test Example 2: blood glucose lowering rate 4 hours after oral Compound A in fasted and non-fasted rats; assay type: in vivo, rat; conditions: 30 mg/kg oral
Procedure: Thirty-six-week old Goto-Kakizaki (GK) rats (purchased from Charles River Japan, Inc.), that spontaneously developed diabetes mellitus, were grouped into 4 groups such as “non-fasting control group”, “non-fasting and Compound A administered group”, “fasting control group”, and “fasting and Compound A administered group” (6 rats per group).
In Compound A administered groups, Compound A (30 mg/kg) was orally administered, and vehicle alone was administered to two control groups. In addition, rats in two fasting groups were fasted from one day before oral administration of Compound A, and rats in two non-fasting groups were fasted immediately after Compound A was administered [the rats were allowed to take food pellets (FR2, manufactured by Funabashi Farm Co., Ltd.) ad libitum until fasting was started]. Blood sample was collected from the tail vein immediately before and 4 hours after oral administration of Compound A. Blood glucose level was determined by electric potential measurement method based on glucose oxidase immobilized electrode using Glucoloader GXT (A&T Corp.). The blood glucose lowering rate (%) at 4 hours after administration of Compound A against the blood glucose level before administration was calculated in individual rats according to the following equation, and the average blood glucose lowering rate and its standard error in each group are summarized in FIG. 2. [Blood glucose lowering rate(%)]=100×([…])/[blood glucose level before administration]

## CCOC(=O)[C@H](C)NP(=O)(N[C@@H](C)C(=O)OCC)c1ccc(-c2nc(N)sc2CC(C)C)o1 [Compound A, 2-amino-5-isobutyl-4-{2-[5-(N,N′-bis((S)-1-ethoxycarbonyl)ethyl)phosphonamido]furanyl}thiazole]
[1]; AM-metformin/PM-Compound A compared with AM-Compound A/PM-metformin, same daily doses, p=0.0330, Tukey test
  glycosylated hemoglobin ratio, Group B vs Group A: improved diabetes mellitus more remarkably
[1]; Group A: Compound A at 9:00 AM, metformin at 4:00 PM, p=0.0749, Tukey test
  glycosylated hemoglobin ratio vs control group: not significantly different from that in the control group
[1]; Group B: metformin at 9:00 AM, Compound A at 4:00 PM, p=0.0002, Tukey test
  glycosylated hemoglobin ratio vs control group: significantly lower than that in the control group
Goto-Kakizaki (GK) rats; GK rats fasted from one day before dosing, p=0.0236, t-test
  blood glucose lowering rate at 4 hours after administration vs corresponding control group: significantly reduced
Goto-Kakizaki (GK) rats; GK rats, both groups given Compound A, p=0.0158, t-test
  blood glucose lowering rate at 4 hours, fasting group vs non-fasting group: significantly lower
Goto-Kakizaki (GK) rats; non-fasting GK rats, p=0.0196, t-test
  blood glucose lowering rate at 4 hours after administration vs corresponding control group: significantly reduced
